# Earlier results in patent US11872266B2, “Rapid-acting insulin compositions” (Eli Lilly and Company, priority 2014, dated 2024).
# Conditions: on a molar basis
substance,measurement,value
28^B-L-Lysine-29^B-L-proline human insulin [Insulin lispro],Potency relative to human insulin,equipotent to human insulin
